Measured values reported in PubChem BioAssay (NCI).
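Briefly, cells in 96-well plates were exposed to five compound concentrations for 48 h, and endpoints were estimated by linear interpolation. GI50 marks 50% less growth. TGI denotes the concentration required for complete inhibition of growth.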

What was measured:
Assay in all cases: NCI anticancer screen, dose series, 48 h
[1] = tested on: HS 578T breast
[2] = tested on: DU-145 prostate
[3] = tested on: K-562 leukemia
[4] = tested on: 786-0 renal
[5] = tested on: COLO 205 colon
[6] = tested on: CCRF-CEM leukemia
[7] = tested on: SNB-75 CNS
[8] = tested on: SN12C renal
[9] = tested on: HCT-15 colon
[10] = tested on: CAKI-1 renal

NC(=S)N/N=C1\CCCCC1C(O)(C(F)(F)Cl)C(F)(F)Cl (stereo not given)
TGI [1]: > 10 µM
TGI [2]: > 10 µM
TGI [3]: > 10 µM
TGI [4]: > 10 µM
TGI [5]: > 10 µM
TGI [6]: > 10 µM
TGI [7]: > 10 µM
TGI [8]: > 10 µM
TGI [9]: > 10 µM

C[C@]12CCc3sc(-c4cccc(F)c4)nc3C1=CC[C@@H]1[C@@H]2CC[C@]2(C)C(=O)CC[C@@H]12
GI50 [10]: 1.87 µM
TGI [10]: 3.76 µM
GI50 [1]: 3.86 µM
TGI [1]: > 100 µM
GI50 [3]: 1.82 µM
TGI [3]: 9.08 µM
GI50 [5]: 2.42 µM
TGI [5]: 5.46 µM
GI50 [6]: 2.45 µM
TGI [6]: 9.58 µM
GI50 [7]: 3.43 µM
TGI [7]: > 100 µM
GI50 [8]: 3.01 µM
TGI [8]: > 100 µM
GI50 [9]: 1.56 µM
TGI [9]: 4.17 µM

Cc1nn(-c2ccccc2)c2nc3ccc(Cl)cc3c(-c3ccccc3)c12
TGI [1]: > 100 µM
TGI [2]: > 100 µM
TGI [4]: > 100 µM
TGI [5]: > 100 µM
TGI [6]: > 100 µM
TGI [7]: > 100 µM
TGI [8]: > 100 µM
TGI [9]: > 100 µM

CCCCS(=O)CC(CO)NC(=O)/C=C/c1c(C)[nH]c(=O)[nH]c1=O (stereo not given)
TGI [10]: 114 µM
TGI [3]: 82.1 µM
TGI [5]: 53.4 µM
TGI [6]: 51 µM
TGI [7]: 30 µM
TGI [8]: 49 µM
TGI [9]: 183 µM

Cc1nc2ccccc2c(=O)n1/N=C/c1ccc(N(C)C)cc1
TGI [10]: > 100 µM
TGI [1]: 54 µM
TGI [2]: > 100 µM
TGI [4]: > 100 µM
TGI [5]: > 100 µM
TGI [6]: > 100 µM
TGI [7]: 43.9 µM
TGI [8]: > 100 µM
TGI [9]: > 100 µM

C=CCN1C[C@@H](C)N([C@@H](c2ccc(C(=O)N(CC)CC)cc2)c2cccc(OC)c2)C[C@@H]1C
TGI [10]: > 100 µM
TGI [1]: > 100 µM
TGI [2]: > 100 µM
TGI [3]: > 100 µM
TGI [4]: > 100 µM
TGI [5]: > 100 µM
TGI [6]: > 100 µM
TGI [8]: > 100 µM
TGI [9]: > 100 µM

O=C1C2CC=CCC2C(=O)N1n1c(Cc2ccccc2)n[nH]c1=O (stereo not given)
TGI [10]: > 100 µM
TGI [1]: > 100 µM
TGI [3]: > 100 µM
TGI [4]: > 100 µM
TGI [5]: > 100 µM
TGI [6]: > 100 µM
TGI [8]: > 100 µM
TGI [9]: > 100 µM

Nc1[nH]c(=S)c2c(N)n[nH]c2c1C(=O)Nc1ccc(Cl)cc1
TGI [10]: > 100 µM
TGI [1]: > 100 µM
TGI [2]: > 100 µM
TGI [3]: > 100 µM
TGI [4]: > 100 µM
TGI [5]: > 100 µM
TGI [7]: > 100 µM
TGI [8]: > 100 µM
TGI [9]: > 100 µM

NC(=O)CNC(=O)[C@@H]1C[C@@H](OCCC(=O)O)CN1C(=O)OCc1ccccc1
TGI [1]: > 100 µM
TGI [2]: > 100 µM
TGI [3]: > 100 µM
TGI [4]: > 100 µM
TGI [5]: > 100 µM
TGI [6]: > 100 µM
TGI [7]: > 100 µM
TGI [8]: > 100 µM
TGI [9]: > 100 µM

CCN(CC)CC(=O)Nc1ccc2c(c1)C(=O)c1ccc(NC(=O)CN(CC)CC)cc1C2=O
TGI [10]: > 100 µM
TGI [3]: 67.8 µM
TGI [4]: 47.2 µM
TGI [5]: 54.1 µM
TGI [6]: > 100 µM
TGI [7]: 89.6 µM
TGI [8]: > 100 µM
TGI [9]: > 100 µM

COc1cc2cc3c4c(cc(OC)c(OC)c4c2cc1OC)CCN3C(=O)CCC(=O)O
TGI [10]: > 100 µM
TGI [3]: > 100 µM
TGI [4]: > 100 µM
TGI [5]: > 100 µM
TGI [6]: > 100 µM
TGI [8]: > 100 µM

Cc1ccc(C)c(COCCOCn2c(=O)[nH]c(=O)c3cc(Br)ccc32)c1
TGI [10]: > 100 µM
TGI [2]: > 100 µM
TGI [3]: > 100 µM
TGI [4]: > 100 µM
TGI [5]: > 100 µM
TGI [6]: > 100 µM
TGI [7]: > 100 µM
TGI [8]: > 100 µM
TGI [9]: > 100 µM

O=C1CCCN1CCCN=c1cc2n(-c3ccc(Cl)cc3)c3ccccc3nc-2cc1Nc1ccc(Cl)cc1
TGI [10]: > 100 µM
TGI [3]: 30 µM
TGI [5]: 2.83 µM
TGI [6]: 50.3 µM
TGI [7]: 97.5 µM
TGI [8]: 43.4 µM
TGI [9]: 20 µM

O=C1CCCC[C@H]1C(O)CC1CC(=O)N(c2ccccc2)C(=O)C1 (stereo not given in full)
TGI [10]: > 100 µM
TGI [1]: > 100 µM
TGI [2]: > 100 µM
TGI [3]: > 100 µM
TGI [4]: > 100 µM
TGI [6]: > 100 µM
TGI [7]: > 100 µM
TGI [8]: > 100 µM
TGI [9]: > 100 µM

COc1ccc(-c2nc3c(nc2-c2ccc(OC)cc2)N(C)S(=O)(=O)N=C3N)cc1
TGI [10]: 94.9 µM
TGI [3]: > 100 µM
TGI [4]: 50.1 µM
TGI [5]: 32.5 µM
TGI [6]: > 100 µM
TGI [7]: > 100 µM
TGI [8]: > 100 µM
TGI [9]: > 100 µM

O=C(c1ccccc1)c1nn(-c2ccccc2)c2nc3nc(-c4ccccc4)cc(=O)n3nc12
GI50 [10]: 68 µM
TGI [10]: > 100 µM
GI50 [1]: 44.6 µM
TGI [1]: > 100 µM
GI50 [2]: 23.8 µM
TGI [2]: 58.2 µM
GI50 [3]: 21.2 µM
TGI [3]: 66.7 µM
GI50 [5]: 26.8 µM
TGI [5]: 64.1 µM
GI50 [7]: 36.1 µM
TGI [7]: > 100 µM
GI50 [8]: 22.7 µM
TGI [8]: 53.2 µM
GI50 [9]: 36.3 µM
TGI [9]: > 100 µM

CC(C)N(/C(F)=N\C(=O)Nc1ccccc1C(F)(F)F)C(C)C
TGI [10]: > 100 µM
TGI [1]: > 100 µM
TGI [3]: > 100 µM
TGI [4]: > 100 µM
TGI [5]: > 100 µM
TGI [6]: > 100 µM
TGI [7]: > 100 µM
TGI [8]: > 100 µM
TGI [9]: > 100 µM

COC(=O)C1C(O)C(C)C(O)OC1C(C)C(O)C(C)/C=C\C=C(/C)C(=O)Nc1c(C)c(OC(C)=O)c2c(c1O)C(=O)C(C)=C1OCOC(/C(C)=C/C(C)=O)=C12 (stereo not given)
TGI [10]: 34 µM
TGI [3]: 51.1 µM
TGI [5]: 20.6 µM
TGI [6]: 34.4 µM
TGI [7]: 29.1 µM
TGI [8]: 21.5 µM
TGI [9]: 29 µM

COc1cc(C(=O)OCCn2[nH]c(-c3ccc(Cl)cc3)nc2=S)cc(OC)c1OC
TGI [10]: > 100 µM
TGI [1]: > 100 µM
TGI [2]: > 100 µM
TGI [3]: > 100 µM
TGI [4]: > 100 µM
TGI [5]: > 100 µM
TGI [6]: > 100 µM
TGI [8]: > 100 µM
TGI [9]: > 100 µM

CC#CCCCC1(C)CCCNC1=S (stereo not given)
TGI [1]: > 10 µM
TGI [2]: > 10 µM
TGI [3]: > 10 µM
TGI [4]: > 10 µM
TGI [6]: > 10 µM
TGI [7]: > 10 µM
TGI [8]: > 10 µM
TGI [9]: > 10 µM

CN=C(NC)N(C)c1nc(=[N+](C)C)ss1
TGI [10]: 98.3 µM
TGI [3]: > 100 µM
TGI [4]: > 100 µM
TGI [6]: > 100 µM
TGI [8]: > 100 µM
TGI [9]: > 100 µM

O=S(=O)(/N=C(\NO)Nc1ccc(Cl)cc1)C1CC=C(c2ccon2)S1 (stereo not given)
TGI [10]: > 100 µM
TGI [1]: > 66.3 µM
TGI [2]: > 100 µM
TGI [3]: > 100 µM
TGI [4]: > 100 µM
TGI [5]: 35 µM
TGI [6]: 72.1 µM
TGI [8]: 98.9 µM
TGI [9]: > 100 µM
